Measured values: the kinase profiling compilation of Christmann-Franck et al. (2016)

How the values were obtained:
Experiment in all cases: KINOMEscan competition binding
Details in all cases: compound 10.0 µM
GAK (human) = GAK (human) (UniProt O14976)
PLK1 (human) = PLK1 (human) (UniProt P53350)
RIPK1 (human) = RIPK1 (human) (UniProt Q13546)
TNK1 (human) = TNK1 (human) (UniProt Q13470)
YSK4 (human) = YSK4 (human) (UniProt Q56UN5)
CDK16 (human) = CDK16 (human) (UniProt Q00536)
VRK2 (human) = VRK2 (human) (UniProt Q86Y07)
KIT (human) = KIT (human) (UniProt P10721)
TESK1 (human) = TESK1 (human) (UniProt Q15569)
NEK4 (human) = NEK4 (human) (UniProt P51957)
PRKACA (human) = PRKACA (human) (UniProt P17612)
HIPK1 (human) = HIPK1 (human) (UniProt Q86Z02)
PDGFRA (human) = PDGFRA (human) (UniProt P16234)
EPHA3 (human) = EPHA3 (human) (UniProt P29320)
MAPK12 (human) = MAPK12 (human) (UniProt P53778)
IKBKE (human) = IKBKE (human) (UniProt Q14164)
FGR (human) = FGR (human) (UniProt P09769)
RPS6KA2 KD2 (human) = RPS6KA2 KD2 (human) (UniProt Q15349)
NEK6 (human) = NEK6 (human) (UniProt Q9HC98)
PRKCE (human) = PRKCE (human) (UniProt Q02156)
[1] = tested on: FLT3 (human), P36888 [D835Y]
MAP3K11 (human) = MAP3K11 (human) (UniProt Q16584)
MAPK11 (human) = MAPK11 (human) (UniProt Q15759)
GSK3A (human) = GSK3A (human) (UniProt P49840)
RAF1 (human) = RAF1 (human) (UniProt P04049)
ACVR2A (human) = ACVR2A (human) (UniProt P27037)
CDKL3 (human) = CDKL3 (human) (UniProt Q8IVW4)
STK10 (human) = STK10 (human) (UniProt O94804)
SRMS (human) = SRMS (human) (UniProt Q9H3Y6)
TXK (human) = TXK (human) (UniProt P42681)
EPHB1 (human) = EPHB1 (human) (UniProt P54762)
CSNK1E (human) = CSNK1E (human) (UniProt P49674)
[2] = target: TYK2 JH1 catalytic (human) (UniProt P29597)
RIOK1 (human) = RIOK1 (human) (UniProt Q9BRS2)
BRSK2 (human) = BRSK2 (human) (UniProt Q8IWQ3)
CDC42BPB (human) = CDC42BPB (human) (UniProt Q9Y5S2)
MST4 (human) = MST4 (human) (UniProt Q9P289)
NTRK1 (human) = NTRK1 (human) (UniProt P04629)
MARK2 (human) = MARK2 (human) (UniProt Q7KZI7)
MAP2K3 (human) = MAP2K3 (human) (UniProt P46734)

Chain of EPHA3 (human) (P29320 whole entry, looked up): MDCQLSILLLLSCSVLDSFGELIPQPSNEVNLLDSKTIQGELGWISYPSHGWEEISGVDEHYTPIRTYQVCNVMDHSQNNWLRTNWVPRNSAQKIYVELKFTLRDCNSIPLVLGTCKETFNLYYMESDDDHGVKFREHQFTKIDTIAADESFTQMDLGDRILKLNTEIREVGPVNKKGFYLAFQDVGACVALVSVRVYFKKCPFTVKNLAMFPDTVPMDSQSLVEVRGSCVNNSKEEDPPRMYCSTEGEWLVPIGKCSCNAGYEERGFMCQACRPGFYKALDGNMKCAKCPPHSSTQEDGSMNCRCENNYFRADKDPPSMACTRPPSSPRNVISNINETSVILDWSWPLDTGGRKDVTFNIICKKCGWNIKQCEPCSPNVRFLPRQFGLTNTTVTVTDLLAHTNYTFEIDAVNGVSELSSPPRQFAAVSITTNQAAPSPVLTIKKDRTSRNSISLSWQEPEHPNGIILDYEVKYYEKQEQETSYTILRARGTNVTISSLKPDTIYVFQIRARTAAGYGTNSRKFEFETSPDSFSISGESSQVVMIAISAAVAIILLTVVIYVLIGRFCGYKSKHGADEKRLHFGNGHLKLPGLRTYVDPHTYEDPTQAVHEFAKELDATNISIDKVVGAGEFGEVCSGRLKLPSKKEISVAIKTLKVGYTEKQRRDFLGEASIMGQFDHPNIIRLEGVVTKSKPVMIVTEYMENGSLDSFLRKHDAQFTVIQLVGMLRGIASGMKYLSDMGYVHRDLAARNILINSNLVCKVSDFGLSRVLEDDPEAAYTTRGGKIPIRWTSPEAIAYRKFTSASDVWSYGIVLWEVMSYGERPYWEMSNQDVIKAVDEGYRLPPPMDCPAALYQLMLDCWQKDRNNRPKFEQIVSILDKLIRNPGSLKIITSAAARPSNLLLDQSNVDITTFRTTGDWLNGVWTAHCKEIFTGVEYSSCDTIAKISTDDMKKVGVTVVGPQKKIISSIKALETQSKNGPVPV
Chain of RIOK1 (human) (Q9BRS2 whole entry, looked up): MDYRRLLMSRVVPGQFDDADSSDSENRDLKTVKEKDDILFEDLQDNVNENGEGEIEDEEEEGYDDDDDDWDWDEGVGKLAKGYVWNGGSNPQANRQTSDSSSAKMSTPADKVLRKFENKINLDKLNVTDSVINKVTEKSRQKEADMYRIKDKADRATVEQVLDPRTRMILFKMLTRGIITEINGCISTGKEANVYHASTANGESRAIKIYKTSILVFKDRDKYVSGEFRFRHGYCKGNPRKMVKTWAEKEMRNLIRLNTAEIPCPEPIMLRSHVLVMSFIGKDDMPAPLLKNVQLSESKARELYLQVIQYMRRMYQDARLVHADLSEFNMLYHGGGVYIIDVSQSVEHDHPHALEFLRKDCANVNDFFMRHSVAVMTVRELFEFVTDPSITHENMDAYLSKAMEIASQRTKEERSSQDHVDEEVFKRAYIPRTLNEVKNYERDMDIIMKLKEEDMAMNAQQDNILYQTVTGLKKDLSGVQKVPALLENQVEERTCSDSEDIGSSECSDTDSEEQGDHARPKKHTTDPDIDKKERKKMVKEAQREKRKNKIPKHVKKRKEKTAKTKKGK
Chain of MAP3K11 (human) (Q16584 whole entry, looked up): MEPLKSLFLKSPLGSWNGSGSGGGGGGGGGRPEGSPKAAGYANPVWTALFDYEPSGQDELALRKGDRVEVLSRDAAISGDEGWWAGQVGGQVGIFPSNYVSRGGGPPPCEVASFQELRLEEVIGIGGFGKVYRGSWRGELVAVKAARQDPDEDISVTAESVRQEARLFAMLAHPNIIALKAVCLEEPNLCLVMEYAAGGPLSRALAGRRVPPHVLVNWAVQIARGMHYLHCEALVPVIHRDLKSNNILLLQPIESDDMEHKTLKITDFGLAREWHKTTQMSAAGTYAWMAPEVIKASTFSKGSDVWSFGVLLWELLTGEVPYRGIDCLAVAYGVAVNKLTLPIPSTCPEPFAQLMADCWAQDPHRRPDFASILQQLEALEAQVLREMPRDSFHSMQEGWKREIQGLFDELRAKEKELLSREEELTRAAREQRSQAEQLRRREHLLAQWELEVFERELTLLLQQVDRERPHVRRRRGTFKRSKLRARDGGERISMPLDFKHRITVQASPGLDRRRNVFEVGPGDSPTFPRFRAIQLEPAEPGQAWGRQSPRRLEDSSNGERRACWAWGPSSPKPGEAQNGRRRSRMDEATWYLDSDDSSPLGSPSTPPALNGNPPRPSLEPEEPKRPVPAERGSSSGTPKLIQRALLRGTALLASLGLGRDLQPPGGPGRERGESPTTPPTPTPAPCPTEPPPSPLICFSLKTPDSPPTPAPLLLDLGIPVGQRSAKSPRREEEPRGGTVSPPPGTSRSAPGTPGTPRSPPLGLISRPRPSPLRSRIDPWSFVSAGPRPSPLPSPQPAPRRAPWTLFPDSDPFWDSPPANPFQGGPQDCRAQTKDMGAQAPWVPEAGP
Chain of MAPK11 (human) (Q15759 whole entry, looked up): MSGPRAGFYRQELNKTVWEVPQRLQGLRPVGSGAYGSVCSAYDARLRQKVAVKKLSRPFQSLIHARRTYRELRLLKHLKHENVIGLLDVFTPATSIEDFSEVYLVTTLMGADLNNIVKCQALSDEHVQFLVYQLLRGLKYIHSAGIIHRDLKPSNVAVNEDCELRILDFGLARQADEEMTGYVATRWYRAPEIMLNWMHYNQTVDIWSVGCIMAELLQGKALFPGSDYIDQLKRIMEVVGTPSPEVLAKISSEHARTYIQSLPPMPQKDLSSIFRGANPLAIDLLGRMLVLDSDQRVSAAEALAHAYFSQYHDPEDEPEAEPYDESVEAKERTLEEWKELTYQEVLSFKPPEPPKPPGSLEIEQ
Chain of HIPK1 (human) (Q86Z02 whole entry, looked up): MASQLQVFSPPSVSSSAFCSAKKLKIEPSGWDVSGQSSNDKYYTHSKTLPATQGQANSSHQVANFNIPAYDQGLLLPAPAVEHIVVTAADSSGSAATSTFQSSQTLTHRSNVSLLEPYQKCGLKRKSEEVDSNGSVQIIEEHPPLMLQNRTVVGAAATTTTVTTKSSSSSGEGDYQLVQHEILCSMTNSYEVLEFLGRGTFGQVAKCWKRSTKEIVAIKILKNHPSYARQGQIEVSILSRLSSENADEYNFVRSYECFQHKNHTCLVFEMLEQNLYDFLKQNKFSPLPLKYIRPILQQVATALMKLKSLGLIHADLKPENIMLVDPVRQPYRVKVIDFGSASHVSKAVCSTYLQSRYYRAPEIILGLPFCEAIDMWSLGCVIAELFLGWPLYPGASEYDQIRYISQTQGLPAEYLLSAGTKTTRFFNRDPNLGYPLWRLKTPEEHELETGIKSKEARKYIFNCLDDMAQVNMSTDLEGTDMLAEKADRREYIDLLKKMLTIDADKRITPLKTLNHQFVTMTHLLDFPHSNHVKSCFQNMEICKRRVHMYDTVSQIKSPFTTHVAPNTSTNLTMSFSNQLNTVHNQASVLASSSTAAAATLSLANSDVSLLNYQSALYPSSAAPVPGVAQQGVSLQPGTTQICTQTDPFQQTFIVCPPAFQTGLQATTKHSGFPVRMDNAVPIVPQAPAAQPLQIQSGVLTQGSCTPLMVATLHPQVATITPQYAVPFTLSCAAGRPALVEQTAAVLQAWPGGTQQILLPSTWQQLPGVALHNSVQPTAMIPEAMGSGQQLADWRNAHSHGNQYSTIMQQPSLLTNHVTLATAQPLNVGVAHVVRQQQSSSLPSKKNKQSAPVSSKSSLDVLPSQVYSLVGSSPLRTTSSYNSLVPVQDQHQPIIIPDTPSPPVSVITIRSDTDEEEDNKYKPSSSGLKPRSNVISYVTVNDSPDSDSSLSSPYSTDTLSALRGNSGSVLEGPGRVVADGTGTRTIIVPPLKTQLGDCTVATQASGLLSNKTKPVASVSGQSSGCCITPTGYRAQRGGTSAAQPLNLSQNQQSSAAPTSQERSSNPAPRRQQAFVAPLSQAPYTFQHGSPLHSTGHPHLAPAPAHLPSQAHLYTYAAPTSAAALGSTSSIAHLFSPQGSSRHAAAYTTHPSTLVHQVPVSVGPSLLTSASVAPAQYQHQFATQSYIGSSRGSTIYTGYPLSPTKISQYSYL
Chain of TNK1 (human) (Q13470 whole entry, looked up): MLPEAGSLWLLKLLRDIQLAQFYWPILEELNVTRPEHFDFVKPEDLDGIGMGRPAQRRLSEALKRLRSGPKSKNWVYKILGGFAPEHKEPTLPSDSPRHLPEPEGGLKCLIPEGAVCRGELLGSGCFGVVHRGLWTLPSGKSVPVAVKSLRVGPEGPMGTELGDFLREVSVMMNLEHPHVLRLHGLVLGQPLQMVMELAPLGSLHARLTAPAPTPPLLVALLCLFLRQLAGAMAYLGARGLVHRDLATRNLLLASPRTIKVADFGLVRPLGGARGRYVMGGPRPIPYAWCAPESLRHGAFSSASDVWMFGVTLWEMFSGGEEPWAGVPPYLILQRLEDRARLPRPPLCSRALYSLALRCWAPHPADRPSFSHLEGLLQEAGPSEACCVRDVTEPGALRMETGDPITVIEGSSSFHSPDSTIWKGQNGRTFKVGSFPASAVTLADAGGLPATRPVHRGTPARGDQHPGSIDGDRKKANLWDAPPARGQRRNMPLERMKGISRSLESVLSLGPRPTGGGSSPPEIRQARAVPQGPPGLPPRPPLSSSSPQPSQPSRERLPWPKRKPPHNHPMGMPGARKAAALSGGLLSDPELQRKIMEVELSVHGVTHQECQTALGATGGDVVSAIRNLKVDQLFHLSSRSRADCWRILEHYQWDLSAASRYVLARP
Chain of MST4 (human) (Q9P289 whole entry, looked up): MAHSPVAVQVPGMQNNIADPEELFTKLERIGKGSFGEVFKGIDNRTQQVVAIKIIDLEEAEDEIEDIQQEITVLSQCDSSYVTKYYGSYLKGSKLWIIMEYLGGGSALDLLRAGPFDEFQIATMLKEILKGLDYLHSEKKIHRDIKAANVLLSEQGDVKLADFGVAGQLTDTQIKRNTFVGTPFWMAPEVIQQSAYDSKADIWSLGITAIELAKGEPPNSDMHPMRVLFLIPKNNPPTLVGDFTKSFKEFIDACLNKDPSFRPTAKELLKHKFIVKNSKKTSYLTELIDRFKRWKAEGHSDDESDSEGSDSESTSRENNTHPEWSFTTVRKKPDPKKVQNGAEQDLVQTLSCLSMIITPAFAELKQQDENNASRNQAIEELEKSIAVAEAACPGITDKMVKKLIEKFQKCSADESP

## COc1cc2c(Nc3ccc(NC(=O)c4ccccc4)cc3)ncnc2cc1OCCCN1CCOCC1
GAK (human)
  kinase still bound, per cent of control: 60%
PLK1 (human)
  kinase still bound, per cent of control: 100%
RIPK1 (human)
  kinase still bound, per cent of control: 100%
TNK1 (human)
  kinase still bound, per cent of control: 69%
YSK4 (human)
  kinase still bound, per cent of control: 23%
CDK16 (human)
  kinase still bound, per cent of control: 64%
VRK2 (human)
  kinase still bound, per cent of control: 100%
KIT (human)
  kinase still bound, per cent of control: 0%
TESK1 (human)
  kinase still bound, per cent of control: 59%
NEK4 (human)
  kinase still bound, per cent of control: 57%
PRKACA (human)
  kinase still bound, per cent of control: 100%
HIPK1 (human)
  kinase still bound, per cent of control: 14%
PDGFRA (human)
  kinase still bound, per cent of control: 2%
EPHA3 (human)
  kinase still bound, per cent of control: 60%
MAPK12 (human)
  kinase still bound, per cent of control: 49%
IKBKE (human)
  kinase still bound, per cent of control: 62%
FGR (human)
  kinase still bound, per cent of control: 19%
RPS6KA2 KD2 (human)
  kinase still bound, per cent of control: 100%
NEK6 (human)
  kinase still bound, per cent of control: 100%
PRKCE (human)
  kinase still bound, per cent of control: 100%
[1]
  kinase still bound, per cent of control: 44%
MAP3K11 (human)
  kinase still bound, per cent of control: 20%
MAPK11 (human)
  kinase still bound, per cent of control: 84%
GSK3A (human)
  kinase still bound, per cent of control: 100%
RAF1 (human)
  kinase still bound, per cent of control: 100%
ACVR2A (human)
  kinase still bound, per cent of control: 100%
CDKL3 (human)
  kinase still bound, per cent of control: 100%
STK10 (human)
  kinase still bound, per cent of control: 0.15%
SRMS (human)
  kinase still bound, per cent of control: 2.4%
TXK (human)
  kinase still bound, per cent of control: 99%
EPHB1 (human)
  kinase still bound, per cent of control: 100%
CSNK1E (human)
  kinase still bound, per cent of control: 80%
[2]
  kinase still bound, per cent of control: 84%
RIOK1 (human)
  kinase still bound, per cent of control: 100%
BRSK2 (human)
  kinase still bound, per cent of control: 100%
CDC42BPB (human)
  kinase still bound, per cent of control: 100%
MST4 (human)
  kinase still bound, per cent of control: 44%
NTRK1 (human)
  kinase still bound, per cent of control: 16%
MARK2 (human)
  kinase still bound, per cent of control: 81%
MAP2K3 (human)
  kinase still bound, per cent of control: 100%
